The record followed here is ChEMBL document CHEMBL4007416, “Thieno[3,2-b]pyrrole-5-carboxamides as New Reversible Inhibitors of Histone Lysine Demethylase KDM1A/LSD1. Part 2: Structure-Based Drug Design and Structure-Activity Relationship” (J Med Chem, 2017).

Data set [1] has as its target T1, LSD1/CoREST complex (Homo sapiens, UniProt O60341). The data set is described as follows: Inhibition of recombinant human KDM1A/CoREST complex expressed in Escherichia coli using [Lys(Me1)4]-Histone H3 (1 to 21 residues)-GGK(biotin) as substrate incubated for 20 mins measured after 1 hr by TR-FRET assay. For orientation: In TR-FRET formats the signal depends on donor and acceptor labels being close together.

Data set [2] addresses T2, Amine oxidase [flavin-containing] A (Homo sapiens, UniProt P21397).
T2 sequence (P21397 whole entry): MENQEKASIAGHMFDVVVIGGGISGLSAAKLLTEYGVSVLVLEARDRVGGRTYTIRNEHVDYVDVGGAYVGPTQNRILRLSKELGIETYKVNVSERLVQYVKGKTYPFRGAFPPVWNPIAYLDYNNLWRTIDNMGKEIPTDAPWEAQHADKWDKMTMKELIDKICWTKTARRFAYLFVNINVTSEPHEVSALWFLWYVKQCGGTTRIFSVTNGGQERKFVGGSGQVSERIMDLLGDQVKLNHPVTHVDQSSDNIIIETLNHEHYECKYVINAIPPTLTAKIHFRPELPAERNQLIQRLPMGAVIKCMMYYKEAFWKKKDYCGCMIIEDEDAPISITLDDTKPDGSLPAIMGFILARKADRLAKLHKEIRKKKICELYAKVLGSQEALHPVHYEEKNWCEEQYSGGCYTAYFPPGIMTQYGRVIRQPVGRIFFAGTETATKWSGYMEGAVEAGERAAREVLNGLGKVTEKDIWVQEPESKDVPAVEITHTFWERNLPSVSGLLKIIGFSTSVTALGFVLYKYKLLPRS
The data set is described as follows: Inhibition of recombinant human MAOA incubated for 15 mins measured after 30 mins by luminescence-Glo assay.

Data set [3] has as its target T3, Amine oxidase [flavin-containing] B (Homo sapiens, UniProt P27338).
T3 sequence (P27338 whole entry): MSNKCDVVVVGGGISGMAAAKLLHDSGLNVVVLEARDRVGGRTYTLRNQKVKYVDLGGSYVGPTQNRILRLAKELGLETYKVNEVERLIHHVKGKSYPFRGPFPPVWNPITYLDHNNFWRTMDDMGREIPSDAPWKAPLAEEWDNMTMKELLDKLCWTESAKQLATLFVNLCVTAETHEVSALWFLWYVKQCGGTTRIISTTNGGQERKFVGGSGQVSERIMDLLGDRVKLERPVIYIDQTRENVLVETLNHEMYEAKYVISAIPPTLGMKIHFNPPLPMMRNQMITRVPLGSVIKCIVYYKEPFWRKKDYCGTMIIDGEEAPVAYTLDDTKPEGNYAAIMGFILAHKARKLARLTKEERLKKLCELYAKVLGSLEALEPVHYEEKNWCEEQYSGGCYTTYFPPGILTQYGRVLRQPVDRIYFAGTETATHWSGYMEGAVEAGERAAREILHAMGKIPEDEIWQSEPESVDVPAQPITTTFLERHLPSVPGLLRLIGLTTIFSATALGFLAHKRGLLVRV
The data set can be described thus: Inhibition of recombinant human MAOB incubated for 15 mins measured after 30 mins by luminescence-Glo assay.

Data set [4] deals with Lysine-specific histone demethylase 1A (Homo sapiens) (UniProt O60341). The data set is described as follows: Inhibition of KDM1A in human THP1 cells assessed as increase in CD11b expression level at 0.5 uM after 48 hrs by flow cytometric analysis. Format: cell-based.
The test system of data set [5] is THP-1. The data set can be described thus: Cell cycle arrest in human THP1 cells at 1 uM after 72 hrs by propidium iodide staining based flow cytometry. Format: functional. A general note: A flow cytometer gives signals particle by particle.
For data set [6], the system named is THP-1. The data set can be described thus: Antiproliferative activity against human THP1 cells.
In data set [7] the test system is THP-1. The data set can be described thus: Induction of apoptosis in human THP1 cells at 1 uM after 72 hrs by Annexin V-propidium iodide double staining based flow cytometry. Format: functional, cell-based.
The test system of data set [8] is NB-4. The data set is described as follows: Antiproliferative activity against human NB4 cells.
Data set [9] has as its system THP-1. The data set can be described thus: Anticlonogenic activity against human THP1 cells assessed as inhibition of methylcellulose colony formation at 1 uM after 13 days relative to control. The following applies: THP-1, 312 h. Format: functional.
Data set [10] has as its system MV4-11. The data set can be described thus: Antiproliferative activity against human MV4-11 cells.
The target of data set [11] is Lysine-specific histone demethylase 1A (Homo sapiens) (UniProt O60341). The data set is described as follows: Inhibition of KDM1A in human THP1 cells assessed as increase in CD86 expression level at 0.5 uM after 48 hrs by flow cytometric analysis. Format: cell-based.
For data set [12], the target named is T1, LSD1/CoREST complex. The data set is described as follows: Competitive inhibition of recombinant human KDM1A/CoREST complex expressed in Escherichia coli using H3K4me peptide as substrate preincubated for 15 mins followed by substrate addition measured for 12 mins by Lineweaver-Burk plot analysis.
Data set [13] has as its system CN1CCC(Oc2ccc(OCc3ccccc3NC(=O)c3cc4sccc4n3C)cc2)CC1. The data set can be described thus: Inhibition of recombinant human KDM1A/CoREST complex expressed in Escherichia coli assessed as Km for substrate using H3K4me peptide as substrate preincubated for 15 mins followed by substrate addition measured for 12 mins by Lineweaver-Burk plot analysis.
Data set [14] has the same test system. The data set can be described thus: Inhibition of recombinant human KDM1A/CoREST complex expressed in Escherichia coli assessed as Vmax for substrate using H3K4me peptide as substrate preincubated for 15 mins followed by substrate addition measured for 12 mins by Lineweaver-Burk plot analysis.

Activity calls are given as the source filed them. The rule behind the calls is not given here.

As usually defined, the IC50 is the midpoint of a concentration-inhibition curve. For the molecule `Cn1c(C(=O)Nc2ccc(COc3ccncc3)cc2)cc2sccc21`, the IC50 in data set [1] worked out at 46400 nM.
Same read-out and setting: to `COCc1cccc(NC(=O)c2cc3sccc3n2C)c1COc1ccc(OC2CCCNCC2)cc1` (stereo not given) belongs 29.2 nM; to `CN1CCC(Oc2ccccc2OCc2ccccc2NC(=O)c2cc3sccc3n2C)CC1`, 68200 nM; to `CN1CCC(Oc2cccc(OCc3ccccc3NC(=O)c3cc4sccc4n3C)c2)CC1`, 1000 nM.
By inhibition is commonly meant the share of the control response that was lost under treatment. For the molecule `CCn1c(C(=O)Nc2cccc(COC)c2COc2ccc(OC[C@@H]3CCNC3)cc2)cc2sccc21`, the 50% inhibitory concentration (IC50) was 47200 nM in data set [2]; over 100000 nM in data set [3]; 6.7 nM in [1]; 1200 nM in data set [6]; 2900 nM in data set [8]; 4100 nM in data set [10]. Moreover, the inhibition result in [4] and in data set [11] was “Active” each time. The outcome in data set [5] and in [7] was inactive. Further, the inhibition at 1 µM in [9] was 63.5%.
As for `CC(=O)N1CCC(Oc2ccc(OCc3ccccc3NC(=O)c3cc4sccc4n3C)cc2)CC1`, in data set [1], the IC50 is over 100000 nM.
The same measure, in the same setting: to `Cn1c(C(=O)Nc2ccccc2CCc2ccc(OC3CCNCC3)cc2)cc2sccc21` belongs 177 nM; to `Cn1c(C(=O)Nc2ccccc2COc2ccc([C@H]3CC[C@H](N)CC3)cc2)cc2sccc21`, 340 nM; to `Cn1c(C(=O)Nc2ccccc2COc2ccncc2)cc2sccc21`, over 100000 nM.
Turning to `CN1CCN(Cc2ccc(OCc3ccccc3NC(=O)c3cc4sccc4n3C)cc2)CC1`, the IC50 in data set [1] is 2900 nM.
Still for that read-out and setting: to `Cn1c(C(=O)Nc2ccccc2COc2ccc(OC3CCNC3)cc2)cc2sccc21` (stereo not given) belongs 804 nM; to `Cn1c(C(=O)Nc2ccccc2COc2ccc(OC3C[C@H]4CC[C@@H](C3)N4)cc2)cc2sccc21` (stereo not given in full), 124 nM.
With `Cn1c(C(=O)Nc2cccc(OCc3ccncc3)c2)cc2sccc21`, the IC50 in [1] stood at 5800 nM.
On the same count and under the same terms, to `Cn1c(C(=O)Nc2ccccc2COc2ccc(OC3CCNCC3)cc2)cc2sccc21` belongs 90 to 94 nM; to `Cn1c(C(=O)Nc2ccccc2COc2ccc(OCC3CCNCC3)cc2)cc2sccc21`, 149 nM.
Consider `Cn1c(C(=O)Nc2ccccc2COc2ccc(OC3CCCNC3)cc2)cc2sccc21` (stereo not given), for which the IC50 in data set [1] was determined as 674 nM.
Take `CNCCCOc1ccc(OCc2ccccc2NC(=O)c2cc3sccc3n2C)cc1`: the IC50 in [1] is 1300 nM.
On to `Cn1c(C(=O)Nc2ccccc2COc2ccc(OCC3CCNC3)cc2)cc2sccc21` (stereo not given), for which the IC50 in data set [1] worked out at 22 nM.
On the same count and under the same terms, to `CN1CCC(Oc2ccc(OCc3ccc(NC(=O)c4cc5sccc5n4C)cc3)cc2)CC1` belongs 2500 nM; to `Cn1c(C(=O)Nc2ccccc2COc2ccc(CNC(=N)N)cc2)cc2sccc21`, 3200 nM; to `Cn1c(C(=O)Nc2ccccc2COc2ccc(OC[C@@H]3CCNC3)cc2)cc2sccc21`, 18 nM.
Same read-out and setting: to `Cn1c(C(=O)Nc2ccccc2COc2ccc(O[C@H]3CC[C@@H](N)CC3)cc2)cc2sccc21` belongs 121 nM.
What is called Ki is the equilibrium dissociation constant of an inhibitor or competing ligand from its target. With `CN1CCC(Oc2ccc(OCc3ccccc3NC(=O)c3cc4sccc4n3C)cc2)CC1`, the IC50 in data set [1] was 310 to 331 nM. The Ki in data set [12] worked out at 2300 nM.
Turning to `Cn1c(C(=O)Nc2ccccc2OCc2ccncc2)cc2sccc21`, in [1], the IC50 is over 100000 nM.
Still for that read-out and setting: to `CCN1CCC(Oc2ccc(OCc3ccccc3NC(=O)c3cc4sccc4n3C)cc2)CC1` belongs 451 nM; to `COCc1ccccc1NC(=O)c1cc2sccc2n1C`, over 100000 nM.
For the molecule `CCOCc1cccc(NC(=O)c2cc3sccc3n2C)c1COc1ccc(OC[C@@H]2CCNC2)cc1`, the IC50 in data set [2] is 41300 nM; in data set [3], over 100000 nM; in data set [1], 7.8 nM; in data set [6], 2400 nM; in [8], 1200 nM; in [10], 2500 nM. The inhibition entry in data set [4] and in data set [11] was “Active” each time. Moreover, the outcome in [5] and in data set [7] was inactive. In addition, in data set [9], the inhibition at 1 µM is 70.5%.
Regarding `COc1ccccc1NC(=O)c1cc2sccc2n1C`, the IC50 in [1] was over 100000 nM.
Same read-out and setting: to `COCc1ccc(NC(=O)c2cc3sccc3n2C)cc1` belongs over 100000 nM; to `COCc1cccc(NC(=O)c2cc3sccc3n2C)c1COc1ccc(OC[C@H]2CCNC2)cc1`, 85.7 nM.
`Cn1c(C(=O)Nc2cccc(CN3CCOCC3)c2COc2ccc(OC3CCNCC3)cc2)cc2sccc21`: the IC50 in data set [1] amounted to 65 nM.
`CC(C)OCc1cccc(NC(=O)c2cc3sccc3n2C)c1COc1ccc(OC2CCNCC2)cc1`: the 50% inhibitory concentration (IC50) in data set [1] was 66 nM.
With `COCc1cccc(NC(=O)c2cc3sccc3n2C)c1COc1ccc(OC2CCNCC2)cc1`, in [1], the IC50 is 74.6 to 75 nM.
For the molecule `COc1ccc(NC(=O)c2cc3sccc3n2C)cc1`, the 50% inhibitory concentration (IC50) in data set [1] was over 100000 nM.
Same read-out and setting: to `Cn1c(C(=O)Nc2ccccc2COc2ccc(NC3CCNCC3)cc2)cc2sccc21` belongs 2500 nM; to `CN1CCC(Oc2ccc(COc3ccccc3NC(=O)c3cc4sccc4n3C)cc2)CC1`, 336 nM; to `Cn1c(C(=O)Nc2ccccc2OCC2CCN(CC3CCNCC3)CC2)cc2sccc21`, 1700 nM.
Still for that read-out and setting: to `Cn1c(C(=O)Nc2ccc(OCc3ccncc3)cc2)cc2sccc21` belongs over 100000 nM; to `Cn1c(C(=O)Nc2ccccc2C(=O)Nc2ccc(OC3CCNCC3)cc2)cc2sccc21`, 2200 nM.
In general, Km refers to the concentration of substrate that gives half-maximal velocity. As usually defined, the Vmax is the top rate of the reaction or transport when substrate is in excess. Turning to “LSD1/CoREST complex (Homo sapiens) (from UniProt O60341+Q9UKL0)”, the Michaelis-Menten constant (Km) in [13] came out at 1.5 µM. In data set [14], the Vmax was determined as 226 µmol/min.
As for `Cn1c(C(=O)Nc2ccccc2COc2ccc(N3CCNCC3)cc2)cc2sccc21`, the IC50 in data set [1] is 1500 nM.
For the molecule `COCc1cccc(NC(=O)c2cc3sccc3n2C)c1COc1ccc(OC[C@@H]2CCNC2)cc1`, the half-maximal inhibitory concentration (IC50) is 24900 nM in data set [2]; over 100000 nM in data set [3]; 8.4 nM in data set [1]; 1300 nM in data set [6]; 400 nM in data set [8]; 1200 nM in data set [10]. In addition, the inhibition result in data set [4] and in [11] was “Active” in each case.
As for `CCOCc1cccc(NC(=O)c2cc3sccc3n2C)c1COc1ccc(OC2CCNCC2)cc1`, the half-maximal inhibitory concentration (IC50) in [1] turned out to be 56 nM.
Same read-out and setting: to `Cn1c(C(=O)Nc2ccccc2COc2ccc(OC3CCCNCC3)cc2)cc2sccc21` (stereo not given) belongs 64 nM; to `Cn1c(C(=O)Nc2ccccc2COc2ccc(OC3CCN(Cc4ccccc4)CC3)cc2)cc2sccc21`, over 100000 nM.
On to `Cn1c(C(=O)Nc2ccccc2COc2ccc(OCC3CNC3)cc2)cc2sccc21`, for which the 50% inhibitory concentration (IC50) in [1] was 618 nM.
